From US20260049072A1, “HETEROCYCLIC COMPOUND FOR INDUCING DEGRADATION OF MUTANT KRAS PROTEIN” (Astellas Pharma Inc., priority 2022, published 2026)

Experiments:
[1] = test system: phosphorylation of ERK (Thr202/Tyr204); assay: ERK phosphorylation inhibitory activity, cell ELISA, PA-TU-8902; assay type: cell-based; details: Homo sapiens, PaTu 8902; PA-TU-8902 cells, 24 hours, 100% = 300 nM trametinib; read-out: IC50 (ERK phosphorylation inhibition)
Procedure: Test Example 2: Evaluation of ERK Phosphorylation Inhibitory Activity on Human KRAS G12V Mutant-Positive Pancreatic Cancer Line PA-TU-8902
The ERK phosphorylation inhibitory activities of subject compounds were evaluated by measuring phosphorylation of the 202th threonine (Thr202) and the 204th tyrosine (Tyr204) of ERK located downstream of the KRAS signal by cell ELISA.
PA-TU-8902 cells were seeded at 36 µL/well on a 384-well plate (from Greiner bio-one) to give 5.0×10^3 cells per well. The cell culture conditions were the same conditions as in Test Example 1-1.
The next day, the subject compounds (9 points having final concentrations in the range of 3 μM to 0.3 nM), trametinib (MEK inhibitor) of a final concentration of 300 nM as a positive control and DMSO, which was the solvent for the subject compounds, as a negative control were diluted 100-fold with a fresh medium and were each added at 4 μL per well, followed by culturing for 24 hours. After culturing, a 30% glyoxal solution (40% glyoxal [from Nacalai Tesque] was diluted with PBS) was quickly added at 30 μL per well, and the plate was allowed to stand for an hour and 30 minutes at room temperature to thus immobilize the cells. Then, the plate was centrifuged (110×g, seven seconds, hereinafter centrifugation was performed under the same conditions unless otherwise specified) to remove the supernatant, and 0.1% Triton X-100-containing PBS was added at 20 μL per well. After allowing the plate to stand for 10 minutes at room temperature, the supernatant was removed by centrifugation, and the same operation was further repeated. Next, 0.5% SDS-containing PBS was added at 20 μL per well. The plate was allowed to stand at room temperature for 30 minutes and was then centrifuged to remove the supernatant. Subsequently, a blocking solution (Intercept Blocking Buffer) was added at 20 μL per well, and the plate was allowed to stand for an hour at room temperature. The supernatant was removed by centrifugation, and an ERK (Thr202/Tyr204) phosphorylation antibody (Phospho-p44/42 MAPK (Erk 1/2) (Thr202/Tyr204) (D13.14.4E) XP Rabbit mAb; from Cell Signaling Technology) diluted 2,500-fold with the blocking solution was added at 15 μL per well as a primary antibody. The plate was allowed to stand at 4° C. overnight.
The next day, the plate was centrifuged to remove the supernatant, and 0.05% Tween-20-containing PBS (from Thermo Scientific; 20×PBS Tween-20 was diluted 20-fold with ion exchange water and used) was added at 50 μL per well. The supernatant was removed by centrifugation to thus wash each well. The washing was performed three times in total. After washing, an anti-rabbit IgG antibody diluted 1,000-fold with the blocking solution was added at 15 μL per well as a secondary antibody, and the plate was allowed to stand for an hour at room temperature. The plate was centrifuged to remove the supernatant, and each well was washed three times with 0.05% Tween-20-containing PBS in the same manner as after the primary antibody reaction. Centrifugation after the third washing was performed at 171×g for 17 seconds. After removing the supernatant, the plate was dried as it was with air at room temperature for three hours or more, and the 800-nm fluorescent signals were measured with Aerius.
With the signaling value at the time of addition of DMSO taken as 0% inhibition and with the signaling value at the time of addition of 300 nM trametinib taken as 100% inhibition, the 50% inhibition values (IC50) were calculated by Sigmoid-Emax model nonlinear regression analysis.

[2] = biological target: T1, RAS G12D (Homo sapiens, UniProt P01116, G12D); assay: RAS G12D degradation activity, Cell ELISA, AsPC-1; assay type: cell-based; details: AsPC-1 cells, 24 hours; read-out: DC50 (RAS G12D 50% degradation value)
T1 construct: host or cells: AsPC-1 human pancreatic cancer cells
T1 sequence (P01116 1-188 isoform P01116-2 G12D): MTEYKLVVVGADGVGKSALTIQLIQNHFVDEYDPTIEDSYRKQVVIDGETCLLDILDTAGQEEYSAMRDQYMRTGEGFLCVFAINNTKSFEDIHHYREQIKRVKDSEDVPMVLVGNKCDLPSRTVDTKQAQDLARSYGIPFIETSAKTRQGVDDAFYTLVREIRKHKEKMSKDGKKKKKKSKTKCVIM
Procedure: Test Example 1-2: Evaluation of RAS G12D Degradation Activity on Human KRAS G12D Mutant-Positive Pancreatic Cancer Line AsPC-1
The RAS G12D degradation activities of subject compounds were evaluated in the same manner as in Test Example 1-1 by measuring the expression levels of RAS G12D by a Cell ELISA method.
AsPC-1 cells (ATCC, CRL-1682) were seeded at 36 μL per well on a 384-well plate to give 2.0×10^4 cells per well. As for the cell culture conditions, RPMI-1640 medium (from Sigma-Aldrich) containing 10% fetal bovine serum was used in the presence of 5% CO2 at 37° C.
The next day, the subject compounds (10 points having final concentrations in the range of 3 μM to 0.1 nM) and DMSO, which was the solvent for the subject compounds, as a negative control were diluted 100-fold with a fresh medium and were each added at 4 μL per well, followed by culturing for 24 hours.
The next day, the procedures from the immobilization of the cells to before the addition of the blocking solution were performed by the same methods as in Test Example 1-1. A blocking solution (Intercept Blocking Buffer; from LI-COR Biosciences) was added at 20 μL per well. After allowing the plate to stand for 30 minutes at room temperature, the supernatant was removed by centrifugation. A solution obtained by diluting an anti-R-actin antibody (1,000-fold dilution) with the blocking solution was added to the wells of the positive control as a primary antibody, and a solution obtained by diluting an anti-Ras (G12D Mutant Specific) antibody (Ras (G12D Mutant Specific) (D8H7) Rabbit mAb; from Cell Signaling Technology; 1,000-fold dilution) and an anti-3-actin antibody (1,000-fold dilution) with the blocking solution was added to the other wells as primary antibodies, each at 15 μL per well. The plate was allowed to stand overnight at 4° C.
The next day, the supernatant was removed by centrifugation, and the plate was washed with PBS. The supernatant was removed by centrifugation, and a solution obtained by diluting an anti-rabbit IgG antibody and an anti-mouse IgG antibody 1,000-fold with the blocking solution was added at 15 μL per well as secondary antibodies. After allowing the plate to stand at room temperature for an hour, the supernatant was removed by centrifugation, and the plate was washed with PBS. After removing the supernatant, the plate was dried as it was with air at room temperature for two hours or more, and the 700-nm and 800-nm fluorescent signals were measured with Aerius.
With the RAS G12D signaling value at the time of addition of DMSO corrected with the signaling value of β-actin taken as 0% and with the RAS G12D signaling value under the conditions of staining with the anti-β-actin antibody alone taken as 100%, the RAS G12D degradation rates were calculated. The 50% degradation values (DC50) were calculated by Sigmoid-Emax model nonlinear regression analysis.

Compound	IC50 [1]	DC50 [2]
Cc1ncsc1-c1ccc([C@H](CO)NC(=O)[C@@H]2C[C@@H](O)CN2C(=O)[C@H](C(C)C)n2cc(-c3ccc(COc4c(-c5c(C)c(F)cc6[nH]ncc56)c(C5CC5)cc5c(NC6CN(c7ncccn7)C6)nc(OC6CCOCC6)nc45)cc3)nn2)cc1 [Example 15, (4R)-1-[(2S)-2-{4-[4-({[(7M)-6-cyclopropyl-7-(6-fluoro-5-methyl-1H-indazol-4-yl)-2-[(oxan-4-yl)oxy]-4-{[1-(pyrimidin-2-yl)azetidin-3-yl]amino}quinazolin-8-yl]oxy}methyl)phenyl]-1H-1,2,3-triazol-1-yl}-3-methylbutanoyl]-4-hydroxy-N-{(1R)-2-hydroxy-1-[4-(4-methyl-1,3-thiazol-5-yl)phenyl]ethyl}-L-prolinamide]	42 nM	146 nM
CO[C@@H](C)COc1nc(N2CC(C#N)C2)c2cc(C3CC3)c(-c3c(C)c(F)cc4[nH]ncc34)c(OCc3ccc(-c4cn([C@H](C(=O)N5C[C@H](O)C[C@H]5C(=O)N[C@@H](CO)c5ccc(-c6scnc6C)cc5)C(C)C)nn4)cc3)c2n1 (atropisomer, axis not shown) [Example 20]	34 nM	16 nM
CNCCNC(=O)N1CC(Oc2nc(OC[C@H](C)OC)nc3c(OCc4ccc(-c5cn([C@H](C(=O)N6C[C@H](O)C[C@H]6C(=O)N[C@@H](CO)c6ccc(-c7scnc7C)cc6)C(C)C)nn5)cc4)c(-c4c(C)c(F)cc5[nH]ncc45)c(C4CC4)cc23)C1 (atropisomer, axis not shown) [Example 18]	33 nM	26 nM
CO[C@@H](C)COc1cc(OC2CN(C(=O)CCCN(C)C)C2)c2cc(C3CC3)c(-c3c(C)c(F)cc4[nH]ncc34)c(OCc3ccc(-c4cn([C@H](C(=O)N5C[C@H](O)C[C@H]5C(=O)N[C@@H](CO)c5ccc(-n6cncn6)cc5)C(C)C)nn4)cc3)c2n1 (atropisomer, axis not shown; (M)) [Example 41, (4R)-1-[(2S)-2-(4-{4-[({(7M)-6-cyclopropyl-4-({1-[4-(dimethylamino)butanoyl]azetidin-3-yl}oxy)-7-(6-fluoro-5-methyl-1H-indazol-4-yl)-2-[(2S)-2-methoxypropoxy]quinolin-8-yl}oxy)methyl]phenyl}-1H-1,2,3-triazol-1-yl)-3-methylbutanoyl]-4-hydroxy-N-{(1R)-2-hydroxy-1-[4-(1H-1,2,4-triazol-1-yl)phenyl]ethyl}-L-prolinamide]	24 nM	3 nM
CO[C@@H](C)COc1nc(NC2CN(C(=O)O[C@H]3C[C@@H](N(C)C)C3)C2)c2cc(C3CC3)c(-c3c(C)c(F)cc4[nH]ncc34)c(OCc3ccc(-c4cn([C@H](C(=O)N5C[C@H](O)C[C@H]5C(=O)N[C@@H](CO)c5ccc(N6CCOC6=O)cc5)C(C)C)nn4)cc3)c2n1 (atropisomer, axis not shown) [Example 4]	48 nM	20 nM
Cc1ncsc1-c1ccc([C@H](CO)NC(=O)[C@@H]2C[C@@H](O)CN2C(=O)[C@H](C(C)C)n2cc(-c3ccc(COc4c(-c5c(C)c(F)cc6[nH]ncc56)c(C5CC5)cc5c(N6CC[C@H]6C(N)=O)nc(OC6CCOCC6)nc45)cc3)nn2)cc1 [Example 35]	11 nM	16 nM
CO[C@@H](C)COc1nc(NC2CN(C(=S)N3CC(CN(C)C)C3)C2)c2cc(C3CC3)c(-c3c(C)c(F)cc4[nH]ncc34)c(OCc3ccc(-c4cn([C@H](C(=O)N5C[C@H](O)C[C@H]5C(=O)N[C@@H](CO)c5ccc(-n6cncn6)cc5)C(C)C)nn4)cc3)c2n1 (atropisomer, axis not shown) [Example 26]	15 nM	6 nM
CO[C@@H](C)COc1nc(NC2CN(C(=O)O[C@H]3C[C@@H](N(C)C)C3)C2)c2cc(C3CC3)c(-c3c(C)c(F)cc4[nH]ncc34)c(OCc3ccc(-c4cn([C@H](C(=O)N5C[C@H](O)C[C@H]5C(=O)N[C@@H](CO)c5ccc(-n6cncn6)cc5)C(C)C)nn4)cc3)c2n1 (atropisomer, axis not shown; (M)) [Example 2, (1s,3R)-3-(dimethylamino)cyclobutyl 3-({(7M)-6-cyclopropyl-7-(6-fluoro-5-methyl-1H-indazol-4-yl)-8-{[4-(1-{(2S)-1-[(2S,4R)-4-hydroxy-2({(1R)-2-hydroxy-1-[4-(1H-1,2,4-triazol-1-yl)phenyl]ethyl}carbamoyl)pyrrolidin-1-yl]-3-methyl-1-oxobutan-2-yl}-1H-1,2,3-triazol-4-yl)phenyl]methoxy}-2-[(2S)-2-methoxypropoxy]quinazolin-4-yl}amino)azetidine-1-carboxylate]	16 nM	5 nM
